Source: patent publication EP0090603A2, “Antibacterial compounds” (BEECHAM GROUP PLC, priority 1982, dated 1983)

Columns and labels:
Assay type in all cases: cell-based
M. suipneumoniae NB12 = assay: MIC against Mycoplasma, in vitro agar dilution; conditions: Friis broth solidified with 0.9% agarose, 10^3 to 10^5 C.F.U., 6 days at 37°C; for MIC: Mesomycoplasma hyopneumoniae, NB12, 144 h, read-out: MIC's against M. suipneumoniae NB12
M. suipneumoniae JF 435 = assay: MIC against Mycoplasma, in vitro agar dilution; conditions: Friis broth solidified with 0.9% agarose, 10^3 to 10^5 C.F.U., 6 days at 37°C; for MIC: Mesomycoplasma hyopneumoniae, JF435, 144 h, read-out: MIC's against M. suipneumoniae JF 435
M. suipneumoniae HK(2) = assay: MIC against Mycoplasma, in vitro agar dilution; conditions: Friis broth solidified with 0.9% agarose, 10^3 to 10^5 C.F.U., 6 days at 37°C; for MIC: Mesomycoplasma hyopneumoniae, 144 h, read-out: MIC's against M. suipneumoniae HK(2)
M. suipneumoniae Str. 11 = assay: MIC against Mycoplasma, in vitro agar dilution; conditions: Friis broth solidified with 0.9% agarose, 10^3 to 10^5 C.F.U., 6 days at 37°C; for MIC: Mesomycoplasma hyopneumoniae, STR.11, 144 h, read-out: MIC's against M. suipneumoniae Str. 11
[1] = tested on: M. suipneumoniae J2206/183^b; assay: MIC against Mycoplasma, in vitro agar dilution; conditions: Friis broth solidified with 0.9% agarose, 10^3 to 10^5 C.F.U., 6 days at 37°C; for MIC: Mesomycoplasma hyopneumoniae, 144 h, read-out: MIC's against M. suipneumoniae J2206/183^b
M. suipneumoniae MS 16 = assay: MIC against Mycoplasma, in vitro agar dilution; conditions: Friis broth solidified with 0.9% agarose, 10^3 to 10^5 C.F.U., 6 days at 37°C; for MIC: Mesomycoplasma hyopneumoniae, MS16, 144 h, read-out: MIC's against M. suipneumoniae MS 16
[2] = tested on: M. suipneumoniae PW/C/210; assay: MIC against Mycoplasma, in vitro agar dilution; conditions: Friis broth solidified with 0.9% agarose, 10^3 to 10^5 C.F.U., 6 days at 37°C; for MIC: Mesomycoplasma hyopneumoniae, 144 h, read-out: MIC's against M. suipneumoniae PW/C/210
M. suipneumoniae LABER = assay: MIC against Mycoplasma, in vitro agar dilution; conditions: Friis broth solidified with 0.9% agarose, 10^3 to 10^5 C.F.U., 6 days at 37°C; for MIC: Mesomycoplasma hyopneumoniae, 144 h, read-out: MIC's against M. suipneumoniae LABER
M. suipneumoniae UCD 1 = assay: MIC against Mycoplasma, in vitro agar dilution; conditions: Friis broth solidified with 0.9% agarose, 10^3 to 10^5 C.F.U., 6 days at 37°C; for MIC: Mesomycoplasma hyopneumoniae, UCD1, 144 h, read-out: MIC's against M. suipneumoniae UCD 1
M. suipneumoniae TAM 6N = assay: MIC against Mycoplasma, in vitro agar dilution; conditions: Friis broth solidified with 0.9% agarose, 10^3 to 10^5 C.F.U., 6 days at 37°C; for MIC: Mesomycoplasma hyopneumoniae, TAM6N, 144 h, read-out: MIC's against M. suipneumoniae TAM 6N
[3] = tested on: M. suipneumoniae ATCC 25095; assay: MIC against Mycoplasma, in vitro agar dilution; conditions: Friis broth solidified with 0.9% agarose, 10^3 to 10^5 C.F.U., 6 days at 37°C; for MIC: Mesomycoplasma hyopneumoniae, ATCC25095, 144 h, read-out: MIC's against M. suipneumoniae ATCC 25095
[4] = tested on: M. suipneumoniae NCTC 10110; assay: MIC against Mycoplasma, in vitro agar dilution; conditions: Friis broth solidified with 0.9% agarose, 10^3 to 10^5 C.F.U., 6 days at 37°C; for MIC: Mesomycoplasma hyopneumoniae, NCTC10110, 144 h, read-out: MIC's against M. suipneumoniae NCTC 10110
M. hyorhinis ATCC 23234 = assay: MIC against Mycoplasma, in vitro agar dilution; conditions: Friis broth solidified with 0.9% agarose, 10^3 to 10^5 C.F.U., 6 days at 37°C; for MIC: Mesomycoplasma hyorhinis, ATCC23234, 144 h, read-out: MIC's against M. hyorhinis ATCC 23234
M. hyorhinis ATCC 25021 = assay: MIC against Mycoplasma, in vitro agar dilution; conditions: Friis broth solidified with 0.9% agarose, 10^3 to 10^5 C.F.U., 6 days at 37°C; for MIC: Mesomycoplasma hyorhinis, ATCC25021, 144 h, read-out: MIC's against M. hyorhinis ATCC 25021
[5] = tested on: M. hyosynoviae ATCC 25591; assay: MIC against Mycoplasma, in vitro agar dilution; conditions: Friis broth solidified with 0.9% agarose, 10^3 to 10^5 C.F.U., 6 days at 37°C; for MIC: 144 h, read-out: MIC's against M. hyosynoviae ATCC 25591
M. bovis NCTC 10131 = assay: microbe, parasite or virus in culture; conditions: for MIC's against M. bovis NCTC 10131: Friis broth solidified with 0.9% agarose, 10^3 to 10^5 C.F.U., 6 days at 37°C; for MIC: NCTC10131, 144 h, read-out: MIC's against M. bovis NCTC 10131
[6] = tested on: M. bovigenitalium ATCC 14173; assay: MIC against Mycoplasma, in vitro agar dilution; conditions: Friis broth solidified with 0.9% agarose, 10^3 to 10^5 C.F.U., 6 days at 37°C; for MIC: 144 h, read-out: MIC's against M. bovigenitalium ATCC 14173
M. dispar NCTC 10125 = assay: MIC against Mycoplasma, in vitro agar dilution; conditions: Friis broth solidified with 0.9% agarose, 10^3 to 10^5 C.F.U., 6 days at 37°C; for MIC: 144 h, read-out: MIC's against M. dispar NCTC 10125
M. gallisepticum S6 = assay: MIC against Mycoplasma, in vitro agar dilution; conditions: Friis broth solidified with 0.9% agarose, 10^3 to 10^5 C.F.U., 6 days at 37°C; for MIC: Mycoplasmoides gallisepticum, S6, 144 h, read-out: MIC's against M. gallisepticum S6
M. pneumoniae ATCC 15492 = assay: MIC against Mycoplasma, in vitro agar dilution; conditions: Friis broth solidified with 0.9% agarose, 10^3 to 10^5 C.F.U., 6 days at 37°C; for MIC: Mycoplasmoides pneumoniae, ATCC15492, 144 h, read-out: MIC's against M. pneumoniae ATCC 15492

4-(Methylthio)benzyl 2-methylmonate [Example 11]
10 µg/mL: MIC's against M. gallisepticum S6 (M. gallisepticum S6)
0.05 µg/mL: MIC's against M. bovis NCTC 10131 (M. bovis NCTC 10131)
0.25 µg/mL: MIC's against M. hyosynoviae ATCC 25591 [5]
0.1 µg/mL: MIC's against M. bovigenitalium ATCC 14173 [6]
1.0 µg/mL: MIC's against M. suipneumoniae NB12 (M. suipneumoniae NB12) | MIC's against M. suipneumoniae Str. 11 (M. suipneumoniae Str. 11) | MIC's against M. suipneumoniae MS 16 (M. suipneumoniae MS 16) | MIC's against M. suipneumoniae PW/C/210 [2] | MIC's against M. suipneumoniae LABER (M. suipneumoniae LABER) | MIC's against M. hyorhinis ATCC 23234 (M. hyorhinis ATCC 23234)
0.5 µg/mL: MIC's against M. hyorhinis ATCC 25021 (M. hyorhinis ATCC 25021) | MIC's against M. dispar NCTC 10125 (M. dispar NCTC 10125)
5.0 µg/mL: MIC's against M. pneumoniae ATCC 15492 (M. pneumoniae ATCC 15492)
2.5 µg/mL: MIC's against M. suipneumoniae JF 435 (M. suipneumoniae JF 435) | MIC's against M. suipneumoniae HK(2) (M. suipneumoniae HK(2)) | MIC's against M. suipneumoniae J2206/183^b [1] | MIC's against M. suipneumoniae UCD 1 (M. suipneumoniae UCD 1) | MIC's against M. suipneumoniae TAM 6N (M. suipneumoniae TAM 6N) | MIC's against M. suipneumoniae ATCC 25095 [3] | MIC's against M. suipneumoniae NCTC 10110 [4]

8-Hydroxyoctyl 2-methylmonate A [Example 13]
0.1 µg/mL: MIC's against M. hyosynoviae ATCC 25591 [5] | MIC's against M. dispar NCTC 10125 (M. dispar NCTC 10125)
5.0 µg/mL: MIC's against M. gallisepticum S6 (M. gallisepticum S6)
1.0 µg/mL: MIC's against M. suipneumoniae NB12 (M. suipneumoniae NB12) | MIC's against M. suipneumoniae JF 435 (M. suipneumoniae JF 435) | MIC's against M. suipneumoniae HK(2) (M. suipneumoniae HK(2)) | MIC's against M. suipneumoniae J2206/183^b [1] | MIC's against M. suipneumoniae UCD 1 (M. suipneumoniae UCD 1) | MIC's against M. suipneumoniae TAM 6N (M. suipneumoniae TAM 6N) | MIC's against M. suipneumoniae NCTC 10110 [4] | MIC's against M. pneumoniae ATCC 15492 (M. pneumoniae ATCC 15492)
≤0.01 µg/mL: MIC's against M. bovis NCTC 10131 (M. bovis NCTC 10131)
0.5 µg/mL: MIC's against M. suipneumoniae Str. 11 (M. suipneumoniae Str. 11) | MIC's against M. suipneumoniae MS 16 (M. suipneumoniae MS 16) | MIC's against M. suipneumoniae PW/C/210 [2] | MIC's against M. suipneumoniae LABER (M. suipneumoniae LABER) | MIC's against M. suipneumoniae ATCC 25095 [3] | MIC's against M. hyorhinis ATCC 23234 (M. hyorhinis ATCC 23234) | MIC's against M. hyorhinis ATCC 25021 (M. hyorhinis ATCC 25021)
0.05 µg/mL: MIC's against M. bovigenitalium ATCC 14173 [6]

CC(CC1OCC(CC2OC2C(C)C(C)O)C(O)C1O)=C(C)C(=O)OCCCCCCCCC(=O)O [Example 7, Sodium 9-[4-(5S-(2S,3S-epoxy-5S-hydroxy-4S-methylhexyl) -3R,4R-dihdroxytetrahydroxyran-2S-yl)-2,3-dimethylbut-2(E)-enoyloxy]nonanoate]
> 10 µg/mL: MIC (M. suipneumoniae JF 435) | MIC (M. suipneumoniae HK(2)) | MIC [1] | MIC (M. suipneumoniae UCD 1) | MIC (M. suipneumoniae TAM 6N) | MIC (M. gallisepticum S6) | MIC (M. pneumoniae ATCC 15492)
1 µg/mL: MIC [5]
0.05 µg/mL: MIC (M. bovis NCTC 10131)
0.5 µg/mL: MIC [6]
2.5 µg/mL: MIC (M. hyorhinis ATCC 23234) | MIC (M. hyorhinis ATCC 25021) | MIC (M. dispar NCTC 10125)
5 µg/mL: MIC (M. suipneumoniae Str. 11) | MIC (M. suipneumoniae MS 16) | MIC [2] | MIC (M. suipneumoniae LABER)
10 µg/mL: MIC (M. suipneumoniae NB12) | MIC [3] | MIC [4]

CC(CC1OCC(CC2OC2C(C)C(C)O)C(O)C1O)=C(C)C(=O)OCc1ccc(Br)cc1 (stereo not shown) [Example 12, 4-Bromobenzyl 2-methylmonate A]
> 10 µg/mL: MIC (M. gallisepticum S6)
2.5 µg/mL: MIC (M. hyorhinis ATCC 23234) | MIC (M. hyorhinis ATCC 25021) | MIC [5] | MIC (M. dispar NCTC 10125)
5 µg/mL: MIC (M. suipneumoniae NB12) | MIC (M. suipneumoniae Str. 11) | MIC (M. suipneumoniae MS 16) | MIC [2] | MIC (M. suipneumoniae LABER) | MIC [3]
0.25 µg/mL: MIC [6]
0.1 µg/mL: MIC (M. bovis NCTC 10131)
10 µg/mL: MIC (M. suipneumoniae JF 435) | MIC (M. suipneumoniae HK(2)) | MIC [1] | MIC (M. suipneumoniae UCD 1) | MIC (M. suipneumoniae TAM 6N) | MIC [4] | MIC (M. pneumoniae ATCC 15492)

CC(CC1OCC(CC2OC2C(C)C(C)O)C(O)C1O)=C(C)C(=O)OCc1cc(C)no1 (stereo not shown) [Example 14, 3-Methyl-5-isoxazolylmethyl 2-methylmonate A]
0.025 µg/mL: MIC [6]
0.5 µg/mL: MIC (M. suipneumoniae NB12) | MIC (M. suipneumoniae JF 435) | MIC (M. suipneumoniae HK(2)) | MIC [1] | MIC (M. suipneumoniae UCD 1) | MIC [3] | MIC [4]
≤ 0.01 µg/mL: MIC (M. bovis NCTC 10131)
0.25 µg/mL: MIC (M. suipneumoniae Str. 11) | MIC (M. suipneumoniae MS 16) | MIC [2] | MIC (M. suipneumoniae LABER) | MIC (M. hyorhinis ATCC 23234) | MIC (M. hyorhinis ATCC 25021)
1 µg/mL: MIC (M. suipneumoniae TAM 6N) | MIC (M. gallisepticum S6) | MIC (M. pneumoniae ATCC 15492)
0.1 µg/mL: MIC [5] | MIC (M. dispar NCTC 10125)
